Assay results reported in patent US7462600B2, “Macrolides” (Pfizer Inc, priority 2004, dated 2008).
Converted amounts (≈) assume the structure as drawn.

Legend:
Format in all cases: cell-based
[1] = tested on: Streptococcus pyogenes 1079; experiment: MIC, microtiter broth dilution (NCCLS M100-S14), S. pyogenes 1079 (ermB); details: Streptococcus pyogenes 1079
Outline: (§1)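 MIC read-out follows NCCLS M100-S14 interpretation of microtiter tray broth dilution. Test agents are prepared as DMSO stocks at 40 mg/ml.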

[2] = tested on: Streptococcus pneumoniae 1016; experiment: MIC, microtiter broth dilution (NCCLS M100-S14), S. pneumoniae 1016 (susceptible); details: Streptococcus pneumoniae 1016
Outline: as §1

[3] = tested on: Streptococcus pneumoniae 1095; details: Streptococcus pneumoniae 1095; microtiter broth dilution
Outline: as §1

[4] = tested on: Streptococcus pneumoniae 1175; details: Streptococcus pneumoniae 1175; microtiter broth dilution
Outline: as §1

[5] = tested on: Haemophilus influenzae 1218; experiment: MIC, microtiter broth dilution (NCCLS M100-S14), H. influenzae 1218 (susceptible); details: Haemophilus influenzae 1218
Outline: as §1

Row | Compound | MIC S. pyogenes 1079 [1] [µg/mL] | MIC S. pneumo. 1016 [2] [µg/mL] | MIC S. pneumo. 1095 [3] [µg/mL] | MIC S. pneumo. 1175 [4] [µg/mL] | MIC H. influenzae 1218 [5] [µg/mL]
1 | CCC1OC(=O)C(C)C(=O)C(C)C(OC2OC(C)CC(N(C)C)C2O)C(C)(OC)CC(C)C(=O)C(C)C2N(C3CN(C(=O)Nc4cc(-c5ccc(F)cc5)n[nH]4)C3)C(=O)OC12C (stereo not drawn) [Example 2.07] | 16 (≈ 18.4 µM) | <0.06 | 4 (≈ 4.59 µM) | 32 (≈ 36.7 µM) | 16 (≈ 18.4 µM)
2 | CCC1OC(=O)C(C)C(=O)C(C)C(OC2OC(C)CC(N(C)C)C2O)C(C)(OC)CC(C)C(=O)C(C)C2N(C3CN(C(=O)Nc4cc(-c5cncc(C)c5)n[nH]4)C3)C(=O)OC12C (stereo not drawn) [Example 2.08] | 32 (≈ 36.9 µM) | <0.06 | 1 (≈ 1.15 µM) | 16 (≈ 18.4 µM) | 8 (≈ 9.22 µM)
3 | CCC1OC(=O)C(C)C(=O)C(C)C(OC2OC(C)CC(N(C)C)C2O)C(C)(OC)CC(C)C(=O)C(C)C2N(C3CN(C(=O)Nc4cccc5nccnc45)C3)C(=O)OC12C (stereo not drawn) [Example 2.09, N-(quinoxalin-8-yl) aminocarbonyl] | >64.00 | <0.06 | 16 (≈ 19.1 µM) | 0.25 (≈ 0.298 µM) | 8 (≈ 9.54 µM)
4 | CCC1OC(=O)C(C)C(=O)C(C)C(OC2OC(C)CC(N(C)C)C2O)C(C)(OC)CC(C)C(=O)C(C)C2N(C3CN(C(=O)NCc4ccc5ncccc5c4)C3)C(=O)OC12C (stereo not drawn) [Example 2.10, N-((quinolin-6-yl)inethyl) aminocarbonyl] | >64.00 | <0.06 | 8 (≈ 9.39 µM) | 0.25 (≈ 0.293 µM) | 2 (≈ 2.35 µM)
5 | CCC1OC(=O)C(C)C(=O)C(C)C(OC2OC(C)CC(N(C)C)C2O)C(C)(OC)CC(C)C(=O)C(C)C2N(C3CN(C(=O)NCc4cnc5ccccc5c4)C3)C(=O)OC12C (stereo not drawn) [Example 2.11, N-((quinolin-3-)methyl) aminocarbonyl] | >64.00 | <0.06 | 2 (≈ 2.35 µM) | 0.12 (≈ 0.141 µM) | 0.5 (≈ 0.587 µM)
6 | CCC1OC(=O)C(C)C(=O)C(C)C(OC2OC(C)CC(N(C)C)C2O)C(C)(OC)CC(C)C(=O)C(C)C2N(C3CN(C(=O)c4ccc(-c5noc(C)n5)cc4)C3)C(=O)OC12C (stereo not drawn) [Example 2.12] | >64.00 | <0.06 | 2 (≈ 2.34 µM) | 0.25 (≈ 0.293 µM) | 32 (≈ 37.5 µM)
7 | CCC1OC(=O)C(C)C(=O)C(C)C(OC2OC(C)CC(N(C)C)C2O)C(C)(OC)CC(C)C(=O)C(C)C2N(C3CN(C(=O)c4ccc(-n5cccn5)cc4)C3)C(=O)OC12C (stereo not drawn) [Example 2.13] | >64.00 | <0.06 | 2 (≈ 2.39 µM) | 0.12 (≈ 0.143 µM) | 8 (≈ 9.55 µM)
8 | CCC1OC(=O)C(C)C(=O)C(C)C(OC2OC(C)CC(N(C)C)C2O)C(C)(OC)CC(C)C(=O)C(C)C2N(C3CN(C(=O)c4ccc(-n5ccnc5)cc4)C3)C(=O)OC12C (stereo not drawn) [Example 2.14] | >64.00 | <0.06 | 2 (≈ 2.39 µM) | 0.25 (≈ 0.298 µM) | 4 (≈ 4.77 µM)
9 | CCC1OC(=O)C(C)C(=O)C(C)C(OC2OC(C)CC(N(C)C)C2O)C(C)(OC)CC(C)C(=O)C(C)C2N(C3CN(C(=O)c4cccc(-c5noc(C)n5)c4)C3)C(=O)OC12C (stereo not drawn) [Example 2.16, 3-(5-methyl-1,2,4-oxadiazol-3-yl)benzoyl] | >64.00 | <0.06 | 16 (≈ 18.7 µM) | 0.25 (≈ 0.293 µM) | 64 (≈ 74.9 µM)
10 | CCC1OC(=O)C(C)C(=O)C(C)C(OC2OC(C)CC(N(C)C)C2O)C(C)(OC)CC(C)C(=O)C(C)C2N(C3CN(C(=O)c4cccc(-n5nc(C)cc5C)c4)C3)C(=O)OC12C (stereo not drawn) [Example 2.17, 3-(3,5-dimethyl-1H-pyrazol-1-yl)benzoyl] | >64.00 | <0.06 | >64.00 | 0.25 (≈ 0.289 µM) | >64.00
11 | CCC1OC(=O)C(C)C(=O)C(C)C(OC2OC(C)CC(N(C)C)C2O)C(C)(OC)CC(C)C(=O)C(C)C2N(C3CN(C(=O)c4ccnc(-c5noc(C)n5)c4)C3)C(=O)OC12C (stereo not drawn) [Example 2.18] | >64.00 | <0.06 | >64.00 | 0.5 (≈ 0.585 µM) | 32 (≈ 37.4 µM)
12 | CCC1OC(=O)C(C)C(=O)C(C)C(OC2OC(C)CC(N(C)C)C2O)C(C)(OC)CC(C)C(=O)C(C)C2N(C3CN(C(=O)c4ccnc(-n5cnnn5)c4)C3)C(=O)OC12C (stereo not drawn) [Example 2.19, 2-(1H-tetrazol-1-yl)pyridine-4-carboxyl] | >64.00 | <0.06 | >64.00 | 0.5 (≈ 0.595 µM) | 32 (≈ 38.1 µM)
13 | CCC1OC(=O)C(C)C(=O)C(C)C(OC2OC(C)CC(N(C)C)C2O)C(C)(OC)CC(C)C(=O)C(C)C2N(C3CN(C(=O)c4ccc(-n5cccn5)nc4)C3)C(=O)OC12C (stereo not drawn) [Example 2.20] | >64.00 | <0.06 | 1 (≈ 1.19 µM) | 0.12 (≈ 0.143 µM) | 16 (≈ 19.1 µM)
14 | CCC1OC(=O)C(C)C(=O)C(C)C(OC2OC(C)CC(N(C)C)C2O)C(C)(OC)CC(C)C(=O)C(C)C2N(C3CN(S(=O)(=O)c4cccnc4)C3)C(=O)OC12C (stereo not drawn) [Example 3.01, 3-descladinosyl-11,12-dideoxy-6-O-methyl-3-oxo-12,11-(oxycarbonyl-(1-(pyridine-3-sulfonyl)-azetidin-3-yl)-imino)-erythromycin A] | 4 (≈ 4.94 µM) | <0.06 | <0.06 | <0.06 | 0.25 (≈ 0.309 µM)
15 | CCC1OC(=O)C(C)C(=O)C(C)C(OC2OC(C)CC(N(C)C)C2O)C(C)(OC)CC(C)C(=O)C(C)C2N(C3CN(S(=O)(=O)c4cccc5ccccc45)C3)C(=O)OC12C (stereo not drawn) [Example 3.02, 3-descladinosyl-11,12-dideoxy-6-O-methyl-3-oxo-12,11-(oxycarbonyl-(1-(naphthalene-1-sulfonyl)-azetidin-3-yl)-imino)-erythromycin A] | 0.5 (≈ 0.583 µM) | <0.06 | <0.06 | <0.06 | 0.12 (≈ 0.14 µM)
16 | CCC1OC(=O)C(C)C(=O)C(C)C(OC2OC(C)CC(N(C)C)C2O)C(C)(OC)CC(C)C(=O)C(C)C2N(C3CN(S(=O)(=O)c4cccc5cccnc45)C3)C(=O)OC12C (stereo not drawn) [Example 3.03, 3-descladinosyl-11,12-dideoxy-O-methyl-3-oxo-12,11-(oxycarbonyl-(1-(quinoline-8-sulfonyl)-azetidin-3-yl)-imino)-erythromycin A] | 1 (≈ 1.16 µM) | <0.06 | <0.06 | <0.06 | 0.12 (≈ 0.14 µM)
17 | CCC1OC(=O)C(C)C(=O)C(C)C(OC2OC(C)CC(N(C)C)C2O)C(C)(OC)CC(C)C(=O)C(C)C2N(C3CN(S(=O)(=O)c4cccc5cnccc45)C3)C(=O)OC12C (stereo not drawn) [Example 3.04, 3-descladinosyl-11,12-dideoxy-6-O-methyl-3-oxo-12,11-(oxycarbonyl-(1-(isoquinoline-5-sulfonyl)-azetidin-3-yl)-imino)-erythromycin A] | 0.12 (≈ 0.14 µM) | <0.06 | <0.06 | <0.06 | 0.25 (≈ 0.291 µM)
18 | CCC1OC(=O)C(C)C(=O)C(C)C(OC2OC(C)CC(N(C)C)C2O)C(C)(OC)CC(C)C(=O)C(C)C2N(C3CN(S(=O)(=O)c4cccc5nonc45)C3)C(=O)OC12C (stereo not drawn) [Example 3.05] | 16 (≈ 18.8 µM) | <0.06 | 2 (≈ 2.35 µM) | <0.06 | 0.25 (≈ 0.294 µM)
